Test results from patent publication US6239111A, “In vivo method of improving survival rate of brain neurons” (Wakunaga Pharmaceutical Co., Ltd., priority 1996, dated 2001).
Read-outs that look alike come from different tables or passages of the source.

Key:
hippocampus neurons = test: Inhibition of reduction in survival rate of rat embryonic hippocampus neurons in serum-free culture; type: cell-based; details: for viability at 1 µg/mL / viability at 0.1 µg/mL / viability at 0.01 µg/mL / viability at 0.001 µg/mL / viability at 0.0001 µg/mL: Rattus norvegicus, Neuron, 72 h, read-out: survival rate of neurons (control group taken as 100%); for viability at 1 µg/mL: 10^-6 g/ml; for inhibitory effect against reduction in survival rate of hippocampus neurons (in words): within the range of 1-1,000 ng/ml
Text: From a rat at the 18th day of pregnancy (having an 18-day old embryo) the uterus was aseptically removed under etherification, and the fetus was obtained. The whole brain was collected from the fetus. From the brain placed in an L-15 medium, the hippocampus was separated under a microscope and minced with a knife. […] The thus-isolated cells were suspended in Eagle's MEM medium supplemented with 10% fetal calf serum, and inoculated at a concentration of 4×10^4 cells/cm^2 into wells of a 48-well plate which had been coated with poly-L-lysin in advance. […] After three-days' additional incubation, the cells were fixed, stained, and the number of surviving cells in each well was counted.
When the survival rate of the neurons in the control group was taken as 100%: […]

[1] = Oral acute toxicity (LD50) in mice; details: mouse, in vivo, oral administration
[2] = test system: neurites of hippocampus cells; test: Branching promotion effect on neurites of hippocampus cells; type: cell-based, rat; details: number of branches from the longest neurite, one and two days after addition, FIG. 1
Procedure: The hippocampus cells obtained in a manner similar to that in Example 1 were incubated for 24 hours in a medium containing fetal calf serum, then for further 24 hours in a serum-free medium. Subsequently, compound (1-1) was added. When compound (1-1) was added, and at the times of one and two days after addition, photographs were taken of the same cells. The number of branches from the longest neurite was counted.

[3] = Oral acute toxicity (LD50) in rats; details: rat, in vivo, oral administration
[4] = three days' incubation, serum-free medium
[5] = 10^-7 g/ml, three days' incubation, serum-free medium
[6] = 10^-8 g/ml, three days' incubation, serum-free medium
[7] = 10^-9 g/ml, three days' incubation, serum-free medium
[8] = 10^-10 g/ml, three days' incubation, serum-free medium

Structure (SMILES)	viability at 1 µg/mL (hippocampus neurons; [4]) [%]	viability at 0.1 µg/mL (hippocampus neurons; [5]) [%]	viability at 0.01 µg/mL (hippocampus neurons; [6]) [%]	viability at 0.001 µg/mL (hippocampus neurons; [7]) [%]	inhibitory effect against reduction in survival rate of hippocampus neurons (in words) (hippocampus neurons)	other results
C=CC[S+]([O-])C[C@H](N)C(=O)O (stereo partly drawn) [(1-2)]	130 to 150	130 to 150	110 to 130	110 to 130	–	viability at 0.0001 µg/mL (hippocampus neurons; [8]): 90 to 110%
C=CCS(=O)(=O)C[C@H](N)C(=O)O [(1-3)]	130 to 150	110 to 130	110 to 130	110 to 130	–	–
C=CCSSC[C@H](N)C(=O)O [(1-4)]	90 to 110	130 to 150	110 to 130	90 to 110	–	viability at 0.0001 µg/mL (hippocampus neurons; [8]): 90 to 110%
C=CCSC[C@H](NC(C)=O)C(=O)O [(1-5)]	110 to 130	110 to 130	110 to 130	90 to 110	–	–
C=CCSC[C@H](NC(=O)CC[C@H](N)C(=O)O)C(=O)O [(1-6)]	130 to 150	130 to 150	130 to 150	90 to 110	–	viability at 0.0001 µg/mL (hippocampus neurons; [8]): 90 to 110%
C=CCSC[C@H](NC(=O)CC[C@H](N)C(=O)O)C(=O)NCC(=O)O [(1-7)]	130 to 150	130 to 150	90 to 110	90 to 110	–	viability at 0.0001 µg/mL (hippocampus neurons; [8]): 90 to 110%
C=CCSCC[C@H](N)C(=O)O [(1-9)]	90 to 110	110 to 130	90 to 110	–	–	–
C=CCS [(1-10)]	110 to 130	110 to 130	110 to 130	90 to 110	–	viability at 0.0001 µg/mL (hippocampus neurons; [8]): 90 to 110%
C=CCSCC=C [(1-11)]	110 to 130	110 to 130	110 to 130	90 to 110	–	viability at 0.0001 µg/mL (hippocampus neurons; [8]): 90 to 110%
C=CCSSCC=C [(1-12)]	–	–	–	–	–	viability at 0.0001 µg/mL (hippocampus neurons): 90 to 110%; viability at 0.001 µg/mL (hippocampus neurons): 90 to 110%; viability at 0.01 µg/mL (hippocampus neurons): 110 to 130%; viability at 0.1 µg/mL (hippocampus neurons): 110 to 130%
C=CCSC(CC(=O)O)C(=O)O (stereo not drawn) [(1-13)]	110 to 130	110 to 130	90 to 110	–	–	–
C=CCSc1ccccc1C(=O)O [(1-14)]	110 to 130	110 to 130	90 to 110	–	–	–
C=CCSc1nc2ccccc2o1 [(1-15)]	110 to 130	110 to 130	90 to 110	–	–	–
C=CCSC[C@H](N)C(=O)O [Compound (1-1)]	130 to 150	130 to 150	110 to 130	110 to 130	–	LD50 [1]: ≥ 1000 mg/kg; viability at 0.0001 µg/mL (hippocampus neurons; [8]): 90 to 110%; branching promotion effect on neurites [2]: confirmed to have branching promotion effect on neurites; LD50 [3]: ≥ 1000 mg/kg
N[C@@H](CS)C(=O)O [L-cysteine, reference compound]	–	–	–	–	No inhibitory effect	–
C=CCNC(N)=O [N-allyl urea, reference compound]	–	–	–	–	No inhibitory effect	–
C=CCOC(=O)[C@@H](N)CS [O-allyl-L-cysteine, reference compound]	–	–	–	–	No inhibitory effect	–
CC=CSC[C@H](N)C(=O)O [S-(1-propenyl)-L-cysteine, reference compound]	–	–	–	–	No inhibitory effect	–
C=CCCSC[C@H](N)C(=O)O [S-(3-butenyl)-L-cysteine, reference compound]	–	–	–	–	No inhibitory effect	–
CSC[C@H](N)C(=O)O [S-methyl-L-cysteine, reference compound]	–	–	–	–	No inhibitory effect	–
C[S+]([O-])C[C@H](N)C(=O)O (stereo partly drawn) [S-methyl-L-cysteinesulfoxide, reference compound]	–	–	–	–	No inhibitory effect	–
C#CCSC[C@H](N)C(=O)O [S-propargyl-L-cysteine, reference compound]	–	–	–	–	No inhibitory effect	–
CCCSC[C@H](N)C(=O)O [S-propyl-L-cysteine, reference compound]	–	–	–	–	No inhibitory effect	–
C=CCO [allyl alcohol, reference compound]	–	–	–	–	No inhibitory effect	–
C=CCNCC(=O)O [allyl glycine, reference compound]	–	–	–	–	No inhibitory effect	–
C=CCOCC=C [diallyl ether, reference compound]	–	–	–	–	No inhibitory effect	–
CCCSSCCC [dipropyldisulfide, reference compound]	–	–	–	–	No inhibitory effect	–
CCCSCCC [dipropylsulfide, reference compound]	–	–	–	–	No inhibitory effect	–
C=CCc1ccc(O)c(OC)c1 [eugenol, reference compound]	–	–	–	–	No inhibitory effect	–
CCCSC[C@H](NC(=O)CC[C@H](N)C(=O)O)C(=O)O [gamma-glutamyl-S-propyl-L-cysteine, reference compound]	–	–	–	–	No inhibitory effect	–
